The conditions of data set [1]: 298.15 K; 101.33 kPa; Liquid.
Data set [2] in a line: refractive index (Na D-line) (dimensionless). The following applies: 298.15 K; 101.33 kPa; Liquid; Standard Abbe refractometry.

± gives the expanded uncertainty stated by the source.

What is called mass density is mass per unit of volume. A word on the refractive index: it is a measure of how strongly the sample bends light.

With `CC(C)CO` [2-methyl-1-propanol], the mass density in data set [1] was 797.83 ± 0.48 kg/m3. Also, in data set [2], the refractive index turned out to be 1.3938 ± 0.0005.

`CC(=O)OCC(C)C` [2-methylpropyl ethanoate]: in data set [1], the mass density was determined as 866.12 ± 1.4 kg/m3. In data set [2], the refractive index was found to be 1.3876 ± 0.0006.

As to `CC(=O)O` [acetic acid], in data set [1], the mass density is recorded as 1043.9 ± 0.11 kg/m3. Also, the refractive index in data set [2] came to 1.3696 ± 0.0005.

On to `O` [water], for which the refractive index in data set [2] was found to be 1.3325 ± 0.0005.

(Values after the NIST ThermoML archive (doi:10.1016/j.fluid.2008.07.001).)
